Structures can show the parent of a compound that is named as a salt. Where two headings read alike, the source gives them in different places.
Experiments:
rat 5-HT7a receptor = target: T1, rat 5-HT7a receptor (Rattus norvegicus, UniProt P32305); assay: 5-HT7 receptor radioligand binding ([3H]5-CT, membranes of transfected HEK-293 cells); conditions: rat 5-HT7a in HEK-293 membranes, 1 nM [3H]5-CT
T1 construct: expressed in transfected cells

5-HT2A receptor = 5-HT2A receptor (UniProt P28223); assay: 5-HT2A receptor radioligand binding ([3H]ketanserin);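 also: competitive displacement binding on membranes, either from rat cerebral cortex or from NIH3T3 cells stably expressing human 5-HT2A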
Method: The affinity of the compounds for the rat 5-HT2A receptor was evaluated by competitive radioligand binding assay using [^3H]ketanserine as the radioligand. The assay was performed on membranes from rat cortex as previously described (Schotte, A. et al., Psychopharmacology (1996) 124: 57-73). Briefly, brain tissue (rat cortex) was homogenized in 20 volumes per wet weight tissue of Tris-HCl buffer (50 mM, pH 7.4). The total membrane fraction was collected by centrifugation and washed by subsequent centrifugation runs (25 min at 25,000 g at 4° C.). Membranes were re-suspended in Tris-HCl buffer (50 mM, pH 7.4) containing 1 nM [^3H]ketanserin. Non-specific binding was estimated in the presence of 10 μM risperidone.

[1] = target: human recombinant 5-HT2B receptor (Homo sapiens, UniProt P41595); assay: 5-HT2B receptor radioligand binding ([3H]mesulergine, CHO membranes);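 also: competitive displacement binding on membranes of CHO cells stably expressing the receptor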
human recombinant 5-HT2B receptor, sequence (P41595 whole entry): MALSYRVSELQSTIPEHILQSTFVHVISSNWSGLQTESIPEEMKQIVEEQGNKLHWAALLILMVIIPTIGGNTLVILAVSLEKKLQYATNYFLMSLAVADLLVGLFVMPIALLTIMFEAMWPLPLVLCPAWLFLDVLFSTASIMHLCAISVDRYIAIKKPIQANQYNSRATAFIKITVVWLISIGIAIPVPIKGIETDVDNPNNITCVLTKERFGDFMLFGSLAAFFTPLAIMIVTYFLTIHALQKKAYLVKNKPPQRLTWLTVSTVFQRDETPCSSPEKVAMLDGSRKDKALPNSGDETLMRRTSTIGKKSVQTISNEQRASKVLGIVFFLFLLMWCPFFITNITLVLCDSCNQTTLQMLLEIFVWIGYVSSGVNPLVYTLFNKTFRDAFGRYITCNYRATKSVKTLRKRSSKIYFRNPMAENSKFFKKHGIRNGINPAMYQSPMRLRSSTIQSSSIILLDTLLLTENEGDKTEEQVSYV
Method: (§1) Affinity for 5HT2 Receptor Binding Sites
(§2) Receptor binding was performed using the human recombinant 5-HT2A (GB: X57830), 5-HT2B (GB: Z36748) and 5-HT2c (GB: M81778) receptors. The affinity of the compounds for the 3 different human 5-HT2 receptor subtypes was evaluated by competitive radioligand binding assays using [^3H]ketanserin (h5-HT2A) or [^3H]mesulergine (h5-HT2B and h5-HT2c). The assays were performed on membranes prepared from NIH3T3 stably transfected with h5-HT2A or CHO stably transfected with h5-HT2B and h5-HT2C.

[2] = target: T2, human recombinant 5-HT2C receptor (Homo sapiens, UniProt P28335); assay: 5-HT2C receptor radioligand binding ([3H]mesulergine, CHO membranes);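 also: competitive displacement of the tritiated ligand, using membranes from CHO cells stably transfected with the human receptor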
T2 sequence (P28335 33-458): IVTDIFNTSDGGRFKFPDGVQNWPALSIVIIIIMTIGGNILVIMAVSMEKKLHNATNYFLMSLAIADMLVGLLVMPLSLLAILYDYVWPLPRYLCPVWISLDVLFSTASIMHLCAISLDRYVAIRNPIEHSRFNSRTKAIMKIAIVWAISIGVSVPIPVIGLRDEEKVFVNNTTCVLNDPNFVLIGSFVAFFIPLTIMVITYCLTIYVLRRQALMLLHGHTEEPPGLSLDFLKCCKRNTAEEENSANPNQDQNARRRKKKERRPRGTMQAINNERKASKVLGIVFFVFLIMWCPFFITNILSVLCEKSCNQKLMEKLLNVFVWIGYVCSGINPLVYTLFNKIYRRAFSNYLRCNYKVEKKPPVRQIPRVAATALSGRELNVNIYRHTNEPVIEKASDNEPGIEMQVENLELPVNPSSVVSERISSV
Method: as §1, §2

[3] = read-out: Ki 5-HT2A, table does not say whether rat cortex or human recombinant (NIH3T3) receptor

T1 sequence (P32305 whole entry): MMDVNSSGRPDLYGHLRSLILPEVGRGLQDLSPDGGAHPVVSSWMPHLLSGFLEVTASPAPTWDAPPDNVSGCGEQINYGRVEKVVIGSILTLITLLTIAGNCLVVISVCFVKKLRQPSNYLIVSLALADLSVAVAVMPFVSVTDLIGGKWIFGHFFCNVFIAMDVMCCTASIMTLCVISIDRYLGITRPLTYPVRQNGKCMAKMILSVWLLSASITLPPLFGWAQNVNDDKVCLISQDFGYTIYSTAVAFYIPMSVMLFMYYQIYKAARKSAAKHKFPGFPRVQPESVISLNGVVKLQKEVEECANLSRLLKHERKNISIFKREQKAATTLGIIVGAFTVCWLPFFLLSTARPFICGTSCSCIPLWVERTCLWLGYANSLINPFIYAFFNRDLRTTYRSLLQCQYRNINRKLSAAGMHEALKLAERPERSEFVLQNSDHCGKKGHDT

Ki (rat 5-HT7a receptor) [nM] | Ki (5-HT2A receptor; [3]) [nM] | Ki ([2]; read-out: Ki 5-HT2C, h5-HT2C in CHO membranes, [3H]mesulergine) [nM] | Ki (5-HT2A receptor; read-out: Ki 5-HT2A, table does not say whether rat cortex or human recombinant (NIH3T3) receptor, citrate salt) [nM] | SMILES | Ki [1] [nM] | Ki [2] [nM]
7 | 9 |  |  | Fc1ccc(-c2nn(Cc3ccccc3)c3c2CCNCC3)cc1 [Example 47, 1-Benzyl-3-(4-fluoro-phenyl)-1,4,5,6,7,8-hexahydro-1,2,6-triaza-azulene] | 64 | 24
19 | 18 |  |  | CCn1nc2c(c1-c1ccc(Cl)cc1)CCNCC2 [Example 64, 3-(4-Chloro-phenyl)-2-ethyl-2,4,5,6,7,8-hexahydro-1,2,6-triaza-azulene] |  | 
8 | 20 |  |  | CC(C)Cn1nc(-c2ccc(Cl)cc2)c2c1CCNCC2 [Example 118, 3-(4-Chloro-phenyl)-1-isobutyl-1,4,5,6,7,8-hexahydro-1,2,6-triaza-azulene] |  | 
120 | 7 |  |  | CC(C)Cn1nc2c(c1-c1ccc(Cl)cc1)CCNCC2 [Example 131, 3-(4-Chloro-phenyl)-2-isobutyl-2,4,5,6,7,8-hexahydro-1,2,6-triaza-azulene] | 4.2 | 50
125 | 2.3 |  |  | c1ccc(Cn2nc3c(c2-c2ccccc2)CCNCC3)cc1 [Example 133, 2-Benzyl-3-phenyl-2,4,5,6,7,8-hexahydro-1,2,6-triaza-azulene] | 3.5 | 10
85 | 3 |  |  | Clc1ccc(-c2c3c(nn2C2CCCCC2)CCNCC3)cc1 [Example 178, 3-(4-Chloro-phenyl)-2-cyclohexyl-2,4,5,6,7,8-hexahydro-1,2,6-triaza-azulene] | 3 | 
10 | 1.5 |  |  | c1ccc(-c2c3c(nn2C2CCCC2)CCNCC3)cc1 [Example 180, 2-Cyclopentyl-3-phenyl-2,4,5,6,7,8-hexahydro-1,2,6-triaza-azulene] | 1.4 | 12
37 | 1.5 |  |  | Clc1ccc(-c2c3c(nn2C2CCCC2)CCNCC3)cc1 [Example 181, 3-(4-Chloro-phenyl)-2-cyclopentyl-2,4,5,6,7,8-hexahydro-1,2,6-triaza-azulene] | 1.8 | 11
90 | 0.74 |  |  | Fc1ccc(-c2c3c(nn2C2CCCC2)CCNCC3)cc1 [Example 182, 2-Cyclopentyl-3-(4-fluoro-phenyl)-2,4,5,6,7,8-hexahydro-1,2,6-triaza-azulene] | 1.4 | 18
240 | 7 |  |  | CCC(CC)n1nc2c(c1-c1cccc(F)c1)CCNCC2 [Example 183, 2-(1-Ethyl-propyl)-3-(3-fluoro-phenyl)-2,4,5,6,7,8-hexahydro-1,2,6-triaza-azulene] | 54 | 70
120 | 1 |  |  | CCC(CC)n1nc2c(c1-c1ccc(F)cc1)CCNCC2 [Example 184, 2-(1-Ethyl-propyl)-3-(4-fluoro-phenyl)-2,4,5,6,7,8-hexahydro-1,2,6-triaza-azulene] | 17 | 15
61 | 1 |  |  | CCC(CC)n1nc2c(c1-c1ccccc1)CCNCC2 [Example 186, 2-(1-Ethyl-propyl)-3-phenyl-2,4,5,6,7,8-hexahydro-1,2,6-triaza-azulene] | 24 | 20
16 | 10 |  |  | CC(C)n1nc2c(c1-c1ccc(F)cc1)CCNCC2 [Example 190, 3-(4-Fluoro-phenyl)-2-isopropyl-2,4,5,6,7,8-hexahydro-1,2,6-triaza-azulene] | 22 | 51
20 | 2.5 |  |  | c1cc(-c2c3c(nn2C2CCCC2)CCNCC3)cs1 [Example 192, 2-Cyclopentyl-3-thiophen-3-yl-2,4,5,6,7,8-hexahydro-1,2,6-triaza-azulene] | 0.9 | 15
6 | 1.1 | 12 |  | Cc1ccc(-c2c3c(nn2C(C)C)CCNCC3)cc1 [Example 209, 2-Isopropyl-3-p-tolyl-2,4,5,6,7,8-hexahydro-1,2,6-triaza-azulene] | 1.4 | 
30 | 8 |  |  | CC(C)(C)n1nc2c(c1-c1ccccc1)CCNCC2 [Example 215, 2-tert-Butyl-3-phenyl-2,4,5,6,7,8-hexahydro-1,2,6-triaza-azulene] | 95 | 
5 |  |  | 400 | Clc1ccc(-c2nn(Cc3ccccc3)c3c2CCNCC3)cc1 [Example 273, 1-Benzyl-3-(4-chloro-phenyl)-1,4,5,6,7,8-hexahydro-1,2,6-triaza-azulene citrate salt] |  | 

The next lines start with the compound.

SMILES | Ki (rat 5-HT7a receptor) [nM] | Ki (5-HT2A receptor; [3]) [nM] | Ki ([2]; read-out: Ki 5-HT2C, h5-HT2C in CHO membranes, [3H]mesulergine) [nM] | Ki (5-HT2A receptor; read-out: Ki 5-HT2A, table does not say whether rat cortex or human recombinant (NIH3T3) receptor, citrate salt) [nM] | Ki [1] [nM] | Ki [2] [nM]
Cc1cccc(Cn2nc(-c3ccc(Cl)cc3)c3c2CCNCC3)c1 [Example 74, 3-(4-Chloro-phenyl)-1-(3-methyl-benzyl)-1,4,5,6,7,8-hexahydro-1,2,6-triaza-azulene] | 5 | 100 |  |  | 94 | 180
Fc1ccc(Cn2nc(-c3ccc(Cl)cc3)c3c2CCNCC3)cc1 [Example 75, 3-(4-Chloro-phenyl)-1-(4-fluoro-benzyl)-1,4,5,6,7,8-hexahydro-1,2,6-triaza-azulene] | 7 | 200 |  |  | 100 | 320
Fc1cccc(Cn2nc(-c3ccc(Cl)cc3)c3c2CCNCC3)c1 [Example 76, 3-(4-Chloro-phenyl)-1-(3-fluoro-benzyl)-1,4,5,6,7,8-hexahydro-1,2,6-triaza-azulene] | 8 | 210 |  |  | 350 | 690
Clc1ccc(-c2nn(Cc3cccs3)c3c2CCNCC3)cc1 [Example 103, 3-(4-Chloro-phenyl)-1-thiophen-2-ylmethyl-1,4,5,6,7,8-hexahydro-1,2,6-triaza-azulene] | 7.7 | 60 |  |  | 44 | 150
c1ccc(Cn2nc(-c3cccs3)c3c2CCNCC3)cc1 [Example 104, 1-Benzyl-3-thiophen-2-yl-1,4,5,6,7,8-hexahydro-1,2,6-triaza-azulene] | 9 | 80 |  |  | 52 | 360
Fc1ccc(Cn2nc(-c3ccc(Cl)cc3)c3c2CCNCC3)c(F)c1 [Example 108, 3-(4-Chloro-phenyl)-1-(2,4-difluoro-benzyl)-1,4,5,6,7,8-hexahydro-1,2,6-triaza-azulene] | 9 |  |  |  | 100 | 800
CCC(CC)Cn1nc(-c2ccc(Cl)cc2)c2c1CCNCC2 [Example 114, 3-(4-Chloro-phenyl)-1-(2-ethyl-butyl)-1,4,5,6,7,8-hexahydro-1,2,6-triaza-azulene] | 32 |  |  |  | 90 | 400
Oc1ccc(Cn2nc(-c3ccc(Cl)cc3)c3c2CCNCC3)cc1F [Example 160, 4-[3-(4-Chloro-phenyl)-5,6,7,8-tetrahydro-4H-1,2,6-triaza-azulen-1-ylmethyl]-2-fluoro-phenol] | 7 | 300 |  |  | 350 | 3500
CN1CCc2c(-c3ccc(Cl)cc3)nn(Cc3ccccc3)c2CC1 [Example 165, 1-Benzyl-3-(4-chloro-phenyl)-6-methyl-1,4,5,6,7,8-hexahydro-1,2,6-triaza-azulene] | 4 | 100 |  |  | 310 | 180
CCN1CCc2c(-c3ccc(Cl)cc3)nn(Cc3ccccc3)c2CC1 [Example 166, 1-Benzyl-3-(4-chloro-phenyl)-6-ethyl-1,4,5,6,7,8-hexahydro-1,2,6-triaza-azulene] | 8 | 80 |  |  | 560 | 590
COc1ccc(CN2CCc3[nH]nc(-c4ccc(Cl)cc4)c3CC2)cc1OC [Example 167, 3-(4-Chloro-phenyl)-6-(3,4-dimethoxy-benzyl)-1,4,5,6,7,8-hexahydro-1,2,6-triaza-azulene] | 75 |  |  |  | 350 | 10000
c1ccc(-c2c3c(nn2C2CCCCC2)CCNCC3)cc1 [Example 177, 2-Cyclohexyl-3-phenyl-2,4,5,6,7,8-hexahydro-1,2,6-triaza-azulene] | 80 | 7 |  |  | 7 | 110
CCn1nc2c(c1-c1ccc(C)cc1)CCNCC2 [Example 214, 2-Ethyl-3-p-tolyl-2,4,5,6,7,8-hexahydro-1,2,6-triaza-azulene] | 5 |  |  |  | 2 | 170
CC(C)n1nc2c(c1-c1ccc([N+](=O)[O-])cc1)CCNCC2 [Example 253, 2-Isopropyl-3-(4-nitro-phenyl)-2,4,5,6,7,8-hexahydro-1,2,6-triaza-azulene] | 75 |  |  |  | 25 | 625
CCc1ccc(-c2c3c(nn2CC)CCNCC3)cc1 [Example 257, 2-Ethyl-3-(4-ethyl-phenyl)-2,4,5,6,7,8-hexahydro-1,2,6-triaza-azulene] | 9 |  |  |  | 2 | 110
